This passage reports IC50 results from patent publication US12220419B2, “BCL-2 inhibitors” (Newave Pharmaceutical Inc., priority 2018, dated 2025).

For one assay, the target named is BCL-2 (Homo sapiens (Human), UniProt P10415). The assay can be described thus: BCL-2 competition binding (fluorescence polarization) assay. The following applies: read-out: BCL2 IC50. As to the method: Biological Example 1: BCL-2 Competition Binding (Fluorescence Polarization) Assay
The fluorescence-labeled 23 amino acid peptide BH3 was purchased from CalBiochem ([…]). […] This binding assay was performed in 96-well plate and with each assay contained 15 and 30 nM of labeled peptide and purified BCL-2 protein (purchased from R&D Systems, Inc). The assay buffer contained 20 mM Hepes (pH 7.0), 50 mM KCl, 5 mM MgCl2, 20 mM Na2MoO4, 0.1 mg/ml Bovine Gamma Globulin and 0.01% NP40. Compounds were diluted in DMSO and added to the final assay with concentration range from 20 μM to 2 nM. The polarization degree (mP) value was determined by BioTek Synergy II with background subtraction after 3 hours of incubation at room temperature. IC50 was calculated using Prism software with sigmoidal dose-response curve fitting. ABT-737 was used as reference compound. Such assays, carried out with a range of doses of test compounds, allowed the determination of an approximate IC50 value.
On the technique in general: Polarisation of emitted light reports the rotation of a fluorescent probe.

The subject of assay [1] is BCL-2-dependent acute lymphoblastic leukemia (ALL) cell line RS4;11. The assay can be described thus: In vitro anti-proliferation assay (ATPlite luminescence) in RS4;11. In kind it is cell-based. The following applies: RS4;11 cells, about 72 hours, medium with 5% FBS or 10% normal human serum. As to the method:
Cell antiproliferation was assayed by PerkinElmer ATPlite™ Luminescence Assay System. Briefly, the various test cancer cell lines were plated at a density of about 1×10^4 cells per well in Costar 96-well plates, and were incubated with different concentrations of compounds for about 72 hours in medium supplemented with 5% FBS or 10% normal human serum (NHS). One lyophilized substrate solution vial was then reconstituted by adding 5 mL of substrate buffer solution, and was agitated gently until the solution was homogeneous. About 50 μL of mammalian cell lysis solution was added to 100 μL of cell suspension per well of a microplate, and the plate was shaken for about five minutes in an orbital shaker at 700 rpm. This procedure was used to lyse the cells and to stabilize the ATP. Next, 50 μL substrate solution was added to the wells and microplate was shaken for five minutes in an orbital shaker at 700 rpm. Finally, the luminescence was measured by a PerkinElmer TopCount® Microplate Scintillation Counter. Such assays, carried out with a range of doses of test compounds, allowed the determination of the cellular anti-antiproliferative IC50 of the compounds of the present invention.
In general terms: Cellular ATP, detected with luciferase, serves as a proxy for viable cell number.

The mark [2] stands for this setting: fluorescein-labeled BH3 peptide 15 nM, purified BCL-2 protein 30 nM, 3 hours incubation at room temperature.

Structures can show the parent of a compound that is named as a salt. Where two headings read alike, the source gives them in different places.

Sequence of BCL-2 (P10415 whole entry): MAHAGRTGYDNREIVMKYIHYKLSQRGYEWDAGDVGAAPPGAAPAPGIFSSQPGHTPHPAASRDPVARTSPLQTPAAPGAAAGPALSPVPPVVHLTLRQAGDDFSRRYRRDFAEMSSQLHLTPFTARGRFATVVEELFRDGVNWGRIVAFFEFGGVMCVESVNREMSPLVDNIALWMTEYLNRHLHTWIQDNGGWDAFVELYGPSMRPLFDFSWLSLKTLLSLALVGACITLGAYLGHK

As to `CC1(C)CCC(CN2CCN(c3ccc(C(=O)NS(=O)(=O)c4ccc(NC[C@H]5COCCO5)c([N+](=O)[O-])c4)c(N4CCCOc5nc6[nH]ccc6cc54)c3)CC2)=C(c2ccc(O)cc2)C1` [Example 38, N-(4-[[(2S)-1,4-dioxan-2-ylmethyl]amino]-3-nitrobenzenesulfonyl)-4-(4-[[2-(4-hydroxyphenyl)-4,4-dimethylcyclohex-1-en-1-yl]methyl]piperazin-1-yl)-2-[14-oxa-2,4,10-triazatricyclo[7.5.0.0^[3,7]]tetradeca-1(9),2,5,7-tetraen-10-yl]benzamide], at BCL-2, the IC50 – broadly, the concentration needed to halve the response being measured – came out at 47 nM.

As for `CC1(C)CCC(CN2CCN(c3ccc(C(=O)NS(=O)(=O)c4ccc(NC[C@H]5COCCO5)c([N+](=O)[O-])c4)c(N4CCCOc5nc(N)ccc54)c3)CC2)=C(c2ccc(Cl)cc2)C1` [Example 39, 2-[7-amino-2H,3H,4H-pyrido[2,3-b][1,4]oxazepin-1-yl]-4-(4-[[2-(4-chlorophenyl)-4,4-dimethylcyclohex-1-en-1-yl]methyl]piperazin-1-yl)-N-(4-[[(2S)-1,4-dioxan-2-ylmethyl]amino]-3-nitrobenzenesulfonyl)benzamide], the IC50 was 1.5 nM at BCL-2 (setting [2]) and 544 nM in assay [1].

As to `CC1(C)CCC(CN2CCN(c3ccc(C(=O)NS(=O)(=O)c4ccc(NCC5CCOCC5)c([N+](=O)[O-])c4)c(N4CCCOc5ncccc54)c3)CC2)=C(c2ccc(Cl)cc2)C1` [Example 35, 4-(4-[[2-(4-chlorophenyl)-4,4-dimethylcyclohex-1-en-1-yl]methyl]piperazin-1-yl)-N-[3-nitro-4-[(oxan-4-ylmethyl)amino]benzenesulfonyl]-2-[2H,3H,4H-pyrido[2,3-b][1,4]oxazepin-1-yl]benzamide], the IC50 on BCL-2 (setting [2]) was 27 nM.

In the case of `COC1(C)CCC(c2ccc(Cl)cc2)=C(CN2CCN(c3ccc(C(=O)NS(=O)(=O)c4ccc(NC[C@H]5COCCO5)c([N+](=O)[O-])c4)c(N4CCCOc5nc6[nH]ccc6cc54)c3)CC2)C1` (stereo partly drawn) [Example 77, 4-(4-[[2-(4-chlorophenyl)-5-methoxy-5-methylcyclohex-1-en-1-yl]methyl]piperazin-1-yl)-N-(4-[[(2S)-1,4-dioxan-2-ylmethyl]amino]-3-nitrobenzenesulfonyl)-2-[14-oxa-2,4,10-triazatricyclo[7.5.0.0[3,7]]tetradeca-1(9),2,5,7-tetraen-10-yl]benzamide], the values for the IC50 (on BCL-2 (setting [2]); in assay [1]) were 0.08 nM and 0.8 nM, respectively.

In the case of `CC1(C)CCC(CN2CCN(c3ccc(C(=O)NS(=O)(=O)c4ccc(NC[C@H]5COCCO5)c([N+](=O)[O-])c4)c(-n4c5ccncc5c5nc6[nH]ccc6cc54)c3)CC2)=C(c2ccc(Cl)cc2)C1` [Example 71, 4-(4-[[2-(4-chlorophenyl)-4,4-dimethylcyclohex-1-en-1-yl]methyl]piperazin-1-yl)-N-(4-[[(2S)-1,4-dioxan-2-ylmethyl]amino]-3-nitrobenzenesulfonyl)-2-[4,8,14,16-tetraazatetracyclo[7.7.0.0^[2,7].0[11,15]]hexadeca-1(16),2(7),3,5,9,11(15),12-heptaen-8-yl]benzamide], the IC50 stood at 0.6 nM at BCL-2 (setting [2]) and 192 nM in assay [1].

For the compound `O=C(NS(=O)(=O)c1ccc(NC[C@H]2COCCO2)c([N+](=O)[O-])c1)c1ccc(N2CCN(CC3=C(c4ccc(Cl)cc4)CCCC3)CC2)cc1N1CCCOc2nc3[nH]ccc3cc21` [Example 74, 4-(4-[[2-(4-chlorophenyl)cyclohex-1-en-1-yl]methyl]piperazin-1-yl)-N-(4-[[(2S)-1,4-dioxan-2-ylmethyl]amino]-3-nitrobenzenesulfonyl)-2-[14-oxa-2,4,10-triazatricyclo[7.5.0.0^[3,7]]tetradeca-1(9),2,5,7-tetraen-10-yl]benzamide], the values for the IC50 (at BCL-2 (setting [2]); in assay [1]) were 0.3 nM and 1.7 nM, respectively.

Consider `CC1(C)CCC(CN2CCN(c3ccc(C(=O)NS(=O)(=O)c4ccc(NCCOCCOCCOCCNc5cccc6c5C(=O)N(C5CCC(=O)NC5=O)C6=O)c([N+](=O)[O-])c4)c(N4CCCOc5nc6[nH]ccc6cc54)c3)CC2)=C(c2ccc(Cl)cc2)C1` (stereo not drawn) [Example 53, 4-(4-[[2-(4-chlorophenyl)-4,4-dimethylcyclohex-1-en-1-yl]methyl]piperazin-1-yl)-N-[4-(12-[[2-(2,6-dioxopiperidin-3-yl)-1,3-dioxoisoindol-4-yl]amino]-4,7,10-trioxa-1-azadodecan-1-yl)-3-nitrobenzenesulfonyl]-2-[14-oxa-2,4,10-triazatricyclo[7.5.0.0^[3,7]]tetradeca-1(9),2,5,7-tetraen-10-yl]benzamide], for which the IC50 on BCL-2 (setting [2]) was found to be 1.2 nM; in assay [1], 79 nM.

Take `Cc1ncsc1-c1ccc(CNC(=O)[C@@H]2C[C@@H](O)CN2C(=O)[C@@H](NC(=O)CCOCCN2CCN(CCNc3ccc(S(=O)(=O)NC(=O)c4ccc(N5CCN(CC6=C(c7ccc(Cl)cc7)CC(C)(C)CC6)CC5)cc4N4CCCOc5nc6[nH]ccc6cc54)cc3[N+](=O)[O-])CC2)C(C)(C)C)cc1` [Example 58]: the IC50 at BCL-2 (setting [2]) is 0.3 nM; in assay [1], 102 nM.

Consider `CC1(C)CCC(CN2CCN(c3ccc(C(=O)NS(=O)(=O)c4ccc(NCC5CCOCC5)c([N+](=O)[O-])c4)c(N4CCOc5ccccc54)c3)CC2)=C(c2ccc(Cl)cc2)C1` [Example 33, 4-(4-[[2-(4-chlorophenyl)-4,4-dimethylcyclohex-1-en-1-yl]methyl]piperazin-1-yl)-2-(3,4-dihydro-2H-1,4-benzoxazin-4-yl)-N-(3-nitro-4-[[(oxan-4-yl)methyl]amino]benzenesulfonyl)benzamide], for which the IC50 at BCL-2 (setting [2]) came to 42.6 nM.

As for `Cc1ncsc1-c1ccc(CNC(=O)[C@@H]2C[C@@H](O)CN2C(=O)[C@@H](NC(=O)CCOCCOCCN2CCN(CCNc3ccc(S(=O)(=O)NC(=O)c4ccc(N5CCN(CC6=C(c7ccc(Cl)cc7)CC(C)(C)CC6)CC5)cc4N4CCCOc5nc6[nH]ccc6cc54)cc3[N+](=O)[O-])CC2)C(C)(C)C)cc1` [Example 56], the IC50 at BCL-2 (setting [2]) turned out to be 0.4 nM; in assay [1], 63.7 nM.

In turn, `CC1(C)CCC(CN2CCN(c3ccc(C(=O)NS(=O)(=O)c4ccc(NCC5CCOCC5)c([N+](=O)[O-])c4)c(N4CC(F)(F)COc5nc6[nH]ccc6cc54)c3)CC2)=C(c2ccc(Cl)cc2)C1` [Example 36, 4-(4-[[2-(4-chlorophenyl)-4,4-dimethylcyclohex-1-en-1-yl]methyl]piperazin-1-yl)-2-[12,12-difluoro-14-oxa-2,4,10-triazatricyclo[7.5.0.0^[3,7]]tetradeca-1(9),2,5,7-tetraen-10-yl]-N-(3-nitro-4-[[(oxan-4-yl)methyl]amino]benzenesulfonyl)benzamide] displayed an IC50 in assay [1] of 0.95 nM.

`CC1(C)CCC(CN2CCN(c3ccc(C(=O)NS(=O)(=O)c4ccc(NC[C@H]5COCCO5)c([N+](=O)[O-])c4)c(N4C(=O)COc5nc6[nH]ccc6cc54)c3)CC2)=C(c2ccc(Cl)cc2)C1` [Example 76, 4-(4-[[2-(4-chlorophenyl)-4,4-dimethylcyclohex-1-en-1-yl]methyl]piperazin-1-yl)-N-(4-[[(2S)-1,4-dioxan-2-ylmethyl]amino]-3-nitrobenzenesulfonyl)-2-[11-oxo-13-oxa-2,4,10-triazatricyclo[7.4.0.0[3,7]]trideca-1(9),2,5,7-tetraen-10-yl]benzamide] showed an IC50 in assay [1] of 54 nM.

In the case of `CC1(C)CCC(CN2CCN(c3ccc(C(=O)NS(=O)(=O)c4ccc(NCC5CCOCC5)c([N+](=O)[O-])c4)c(N4CCOc5ccncc54)c3)CC2)=C(c2ccc(Cl)cc2)C1` [Example 34, 4-(4-[[2-(4-chlorophenyl)-4,4-dimethylcyclohex-1-en-1-yl]methyl]piperazin-1-yl)-N-[3-nitro-4-[(oxan-4-ylmethyl)amino]benzenesulfonyl]-2-[2H,3H-pyrido[4,3-b][1,4]oxazin-4-yl]benzamide], the IC50 at BCL-2 (setting [2]) turned out to be 122 nM.

`CC1(C)CCC(CN2CCN(c3ccc(C(=O)NS(=O)(=O)c4ccc(NCC5CCOCC5)c([N+](=O)[O-])c4)c(N4CCC(c5ccccn5)Oc5nc6[nH]ccc6cc54)c3)CC2)=C(c2ccc(Cl)cc2)C1` (stereo not drawn) [Example 40, 4-(4-[[2-(4-chlorophenyl)-4,4-dimethylcyclohex-1-en-1-yl]methyl]piperazin-1-yl)-N-[3-nitro-4-[(oxan-4-ylmethyl)amino]benzenesulfonyl]-2-[13-(pyridin-2-yl)-14-oxa-2,4,10-triazatricyclo[7.5.0.0^[3,7]]tetradeca-1(9),2,5,7-tetraen-10-yl]benzamide hydrochloride] registered an IC50 in assay [1] of 5.6 nM.
